Measured values from patent US5601992A, “Peptide library formats and methods relating thereto” (Bunsen Rush Laboratories, Inc., priority 1994, dated 1997).
Where no end group is shown, it is not given here.

Assays:
melanophore cells = experiment: Pigment dispersion assay with a-MSH- and control-peptide-coated beads on a dish plated with melanophore cells; assay type: cell-based; conditions: TFA-treated beads on agarose gel with 20 nM melantonin; ten and 30 minutes after placement
Method: a-MSH and its congener peptide (cp) were screened using a culture dish plated with melanophore cells. Melanophores were maintained in cell culture as previously described (A. Daniolos, et al., Pigment Cell Res. 3, 38 (1990); M. N. Potenza, M. R. Lerner, Pigment Cell Res. 4, 186 (1991)). Four million cells were seeded into a 100 mm tissue culture plate (actual internal diameter was 85 mm) in 20 mL of frog fibroblast conditioned media and incubated at 27° C. for 72 h. For an experiment, the media was removed from the dish and replaced with 9 mL of 0.9% Sea Plaque Agarose (FMC Corporation) prepared in fibroblast conditioned media containing 20 nM melantonin. The plate was then placed in the dark for thirty min, after which beads coated with a-MSH or the cp, were sprinkled on the agarose bed and the pigment dispersion response was monitored by photography.

murine bombesin receptor = target: T1, murine bombesin receptor (Mus musculus, UniProt P21729); experiment: Screening of bead-released peptides (MPL) on agarose-overlaid melanophores expressing the bombesin receptor; pigment dispersion; assay type: cell-based; conditions: TFA-gas-cleaved beads on agarose with 2 nM melantonin
T1 construct: expressed in transfected cells; host or cells: melanophores (frog; cultured as in Potenza & Lerner), transfected by electroporation with pJG3.6BR
Method: Melanophore cells (either transfected or non-transfected and as described in the above-identified patent application) were seeded (4×10^6)into 100 mm tissue culture plate (Falcon, N.J.). For transfected cells, the 100 mm tissue culture dishes were pre-coated with Cell-Tak (Collaborative Research, Inc., Massachusetts) at a concentration of […]. Media and conditions unless otherwise stated, were as described in the above-identified patent application. For wild type cells, no media changes are necessary and the cells can be used as soon as 24 hours after plating. For transfected cells, after the cells have attached to the surface (2-3 h), the media was removed and replaced with 20 ml of frog fibroblast conditioned media which is based on 70% L-15 media (Sigma) with 20% fetal bovine serum supplemented with L-Glutamine and Penicillin Streptomycin (Gibco). The cells were incubated at 27° C. for 12-72 h. Then 12-24 before the experiment, the media was removed and the cells were washed gently with 1×10 ml 70% EX-CELL 320 (JRH Biosciences, Kansas; 70% part A 29% water and 1% part B, hereinafter EX-CELL). […]
The bombesin MPL was screened for agonists using melanophore cells expressing the bombesin receptor. […] Pigment dispersion induced by peptide analogues were monitored by video image subtraction (McClintock, T., et al., Anal. Biochem. 209:298-305 (1993)). […]

T1 sequence (P21729 whole entry): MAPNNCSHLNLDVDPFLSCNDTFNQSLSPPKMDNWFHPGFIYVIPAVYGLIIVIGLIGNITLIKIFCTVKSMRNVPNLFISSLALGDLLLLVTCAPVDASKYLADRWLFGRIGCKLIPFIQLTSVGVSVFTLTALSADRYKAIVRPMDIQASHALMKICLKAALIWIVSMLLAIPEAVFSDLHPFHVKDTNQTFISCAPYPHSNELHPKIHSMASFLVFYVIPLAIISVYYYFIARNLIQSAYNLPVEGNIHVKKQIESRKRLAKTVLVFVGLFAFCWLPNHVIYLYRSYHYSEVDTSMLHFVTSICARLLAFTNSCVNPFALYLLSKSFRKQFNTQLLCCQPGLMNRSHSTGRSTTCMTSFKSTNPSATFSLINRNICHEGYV

Ser-Lys-Glu-Arg-His-Ser-Trp-Tyr-NH2 (SKERHSWY-NH2) [cp, negative control peptide]
pigment dispersion response (melanophore cells): lack of a pigment dispersion response

litorin
pigment dispersion response of recombinant melanophores to peptide released from bead (agonist activity) (murine bombesin receptor): biological activity of the free peptide released from (but still coated on) the bead was confirmed
